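How tested: cells in 96-well plates exposed to compound for 48 hours at five concentrations. TGI: total growth inhibition.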
Columns and labels:
Experiment in all cases: NCI tumour cell line growth inhibition, 48 h
IGROV1 ovarian = test system: IGROV1 ovarian
HCC-2998 colon = test system: HCC-2998 colon
SN12K1 renal = test system: SN12K1 renal
HCT-116 colon = test system: HCT-116 colon
P388 leukemia = test system: P388 leukemia
SK-MEL-2 melanoma = test system: SK-MEL-2 melanoma
RXF 393 renal = test system: RXF 393 renal
SK-MEL-28 melanoma = test system: SK-MEL-28 melanoma
NCI-H522 lung = test system: NCI-H522 lung
SNB-78 CNS = test system: SNB-78 CNS
HOP-62 NSCLC = test system: HOP-62 NSCLC
SK-OV-3 ovarian = test system: SK-OV-3 ovarian
MALME-3M melanoma = test system: MALME-3M melanoma
NCI-H23 lung = test system: NCI-H23 lung
OVCAR-8 ovarian = test system: OVCAR-8 ovarian
MCF7 breast = test system: MCF7 breast
DLD-1 colon = test system: DLD-1 colon
OVCAR-3 ovarian = test system: OVCAR-3 ovarian
HT29 colon = test system: HT29 colon
UACC-62 melanoma = test system: UACC-62 melanoma
SF-268 CNS = test system: SF-268 CNS
M19-MEL melanoma = test system: M19-MEL melanoma
K-562 leukemia = test system: K-562 leukemia
HOP-18 NSCLC = test system: HOP-18 NSCLC
COLO 205 colon = test system: COLO 205 colon
SNB-75 CNS = test system: SNB-75 CNS
UO-31 renal = test system: UO-31 renal
HL-60(TB) leukemia = test system: HL-60(TB) leukemia
SNB-19 CNS = test system: SNB-19 CNS
OVCAR-4 ovarian = test system: OVCAR-4 ovarian
OVCAR-5 ovarian = test system: OVCAR-5 ovarian
DMS 273 small cell lung = test system: DMS 273 small cell lung
SN12C renal = test system: SN12C renal
SK-MEL-5 melanoma = test system: SK-MEL-5 melanoma
SF-539 CNS = test system: SF-539 CNS
RPMI-8226 leukemia = test system: RPMI-8226 leukemia
MOLT-4 leukemia = test system: MOLT-4 leukemia
P388/ADR leukemia = test system: P388/ADR leukemia
NCI-H226 lung = test system: NCI-H226 lung
A549 NSCLC = test system: A549 NSCLC
CCRF-CEM leukemia = test system: CCRF-CEM leukemia
U251 CNS = test system: U251 CNS
NCI-H460 lung = test system: NCI-H460 lung
A498 renal = test system: A498 renal
KM12 colon = test system: KM12 colon
DMS 114 small cell lung = test system: DMS 114 small cell lung
HOP-92 NSCLC = test system: HOP-92 NSCLC
SW-620 colon = test system: SW-620 colon
KM20L2 colon = test system: KM20L2 colon
NCI/ADR-RES ovarian = test system: NCI/ADR-RES ovarian
HCT-15 colon = test system: HCT-15 colon
CAKI-1 renal = test system: CAKI-1 renal
EKVX NSCLC = test system: EKVX NSCLC
SF-295 CNS = test system: SF-295 CNS
LOX IMVI melanoma = test system: LOX IMVI melanoma
UACC-257 melanoma = test system: UACC-257 melanoma
XF 498 CNS = test system: XF 498 CNS

CCCCc1[nH]ccc2c(C)c3nc4ccccc4c3cc12
TGI (IGROV1 ovarian): 16.9 µM
TGI (HCC-2998 colon): 8.19 µM
TGI (SN12K1 renal): 5.75 µM
TGI (HCT-116 colon): 4.76 µM
TGI (P388 leukemia): 4.13 µM
TGI (SK-MEL-2 melanoma): 11.4 µM
TGI (RXF 393 renal): 7.61 µM
TGI (SK-MEL-28 melanoma): 11.8 µM
TGI (NCI-H522 lung): 6.75 µM
TGI (SNB-78 CNS): 21.3 µM
TGI (HOP-62 NSCLC): 14.5 µM
TGI (SK-OV-3 ovarian): 16.8 µM
TGI (MALME-3M melanoma): 14.5 µM
TGI (NCI-H23 lung): 16 µM
TGI (OVCAR-8 ovarian): 9.49 µM
TGI (MCF7 breast): 10.8 µM
TGI (DLD-1 colon): 13.3 µM
TGI (OVCAR-3 ovarian): 10.8 µM
TGI (HT29 colon): 8.85 µM
TGI (UACC-62 melanoma): 8.75 µM
TGI (SF-268 CNS): 21.6 µM
TGI (M19-MEL melanoma): 10.9 µM
TGI (K-562 leukemia): 5.98 µM
TGI (HOP-18 NSCLC): 6.83 µM
TGI (COLO 205 colon): 3.39 µM
TGI (SNB-75 CNS): 15.8 µM
TGI (UO-31 renal): 10.9 µM
TGI (HL-60(TB) leukemia): 3.45 µM
TGI (SNB-19 CNS): 11.6 µM
TGI (OVCAR-4 ovarian): 13.5 µM
TGI (OVCAR-5 ovarian): 17.2 µM
TGI (DMS 273 small cell lung): 2.4 µM
TGI (SN12C renal): 19.4 µM
TGI (SK-MEL-5 melanoma): 6.52 µM
TGI (SF-539 CNS): 7.45 µM
TGI (RPMI-8226 leukemia): 6.77 µM
TGI (MOLT-4 leukemia): 4.72 µM
TGI (P388/ADR leukemia): 7.29 µM
TGI (NCI-H226 lung): 24.6 µM
TGI (A549 NSCLC): 14.1 µM
TGI (CCRF-CEM leukemia): 10.6 µM
TGI (U251 CNS): 12.8 µM
TGI (NCI-H460 lung): 5.03 µM
TGI (A498 renal): 13.4 µM
TGI (KM12 colon): 12.7 µM
TGI (DMS 114 small cell lung): 4.14 µM
TGI (HOP-92 NSCLC): 12.4 µM
TGI (SW-620 colon): 6.78 µM
TGI (KM20L2 colon): 10.8 µM
TGI (NCI/ADR-RES ovarian): 5.87 µM
TGI (HCT-15 colon): 8.49 µM
TGI (CAKI-1 renal): 6.33 µM
TGI (EKVX NSCLC): 13.6 µM
TGI (SF-295 CNS): 8.41 µM
TGI (LOX IMVI melanoma): 4.3 µM
TGI (UACC-257 melanoma): 5.13 µM

C=C1CC(OC)(C(OC)C(=O)N(C)[C@H]2OCO[C@H]3C2O[C@H](C[C@@H](COC)OC)C(C)(C)C3OC)O[C@H](C)[C@@H]1C (stereo partly drawn)
TGI (IGROV1 ovarian): 32.5 µM
TGI (HCC-2998 colon): 31.6 µM
TGI (SN12K1 renal): 38.6 µM
TGI (HCT-116 colon): 30.6 µM
TGI (P388 leukemia): 18.2 µM
TGI (RXF 393 renal): 24.8 µM
TGI (SK-MEL-28 melanoma): 40.6 µM
TGI (NCI-H522 lung): 29.9 µM
TGI (SNB-78 CNS): 43.5 µM
TGI (HOP-62 NSCLC): > 91.7 µM
TGI (XF 498 CNS): 40.1 µM
TGI (NCI-H23 lung): 34.7 µM
TGI (OVCAR-8 ovarian): > 91.7 µM
TGI (MCF7 breast): 28.8 µM
TGI (DLD-1 colon): 70.4 µM
TGI (OVCAR-3 ovarian): 37.8 µM
TGI (HT29 colon): 29 µM
TGI (UACC-62 melanoma): 33.1 µM
TGI (SF-268 CNS): 30.2 µM
TGI (K-562 leukemia): 40.9 µM
TGI (HOP-18 NSCLC): 71.2 µM
TGI (COLO 205 colon): 20.9 µM
TGI (SNB-75 CNS): 24.7 µM
TGI (UO-31 renal): 49.1 µM
TGI (HL-60(TB) leukemia): 39.6 µM
TGI (SNB-19 CNS): 46.8 µM
TGI (OVCAR-4 ovarian): 22.2 µM
TGI (OVCAR-5 ovarian): 69.2 µM
TGI (DMS 273 small cell lung): 29 µM
TGI (SN12C renal): 86.6 µM
TGI (SK-MEL-5 melanoma): > 9.17 µM
TGI (SF-539 CNS): 42.8 µM
TGI (RPMI-8226 leukemia): 53.2 µM
TGI (MOLT-4 leukemia): 36 µM
TGI (P388/ADR leukemia): 38.8 µM
TGI (NCI-H226 lung): 23.9 µM
TGI (A549 NSCLC): > 91.7 µM
TGI (CCRF-CEM leukemia): 37.7 µM
TGI (U251 CNS): 54.4 µM
TGI (NCI-H460 lung): 64.5 µM
TGI (A498 renal): 28.8 µM
TGI (KM12 colon): 25.9 µM
TGI (DMS 114 small cell lung): 34.9 µM
TGI (SW-620 colon): > 91.7 µM
TGI (KM20L2 colon): 36.8 µM
TGI (NCI/ADR-RES ovarian): 41.2 µM
TGI (HCT-15 colon): 87.3 µM
TGI (CAKI-1 renal): 28.5 µM
TGI (EKVX NSCLC): 60.7 µM
TGI (SF-295 CNS): 30 µM
TGI (LOX IMVI melanoma): 26.5 µM
TGI (UACC-257 melanoma): 30.3 µM

— PubChem BioAssay (NCI)
